Experimental findings from publication PMC12259270, “Sensory neuron–expressed FGF13 controls nociceptive signaling in diabetic neuropathy models” (The Journal of Clinical Investigation, 2025) are described below.

For the test, the target named is T1, FGF13/Nav1.7 CTD complex (Homo sapiens, UniProt Q92913).
T1 construct: Full-length FGF13-1b (aa 1-192) was subcloned into appropriate plasmids; Nav1.7 residues 1780-1977; expressed in transfected cells; host or cells: HEK293 (inferred; the LCA paragraph only says 'cells')
T1 sequence (Q92913 1-192 isoform Q92913-2): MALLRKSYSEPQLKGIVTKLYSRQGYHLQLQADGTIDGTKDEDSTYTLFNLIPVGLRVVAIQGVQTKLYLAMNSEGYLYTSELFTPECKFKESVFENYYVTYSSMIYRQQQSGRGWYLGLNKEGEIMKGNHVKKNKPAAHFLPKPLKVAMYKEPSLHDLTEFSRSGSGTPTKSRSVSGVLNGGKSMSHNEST
Nature of the test: Split-luciferase complementation assay (LCA), CLuc-FGF13/CD4-Nav1.7-CTD-NLuc. The class given is cell-based. Details: key to LCA dose response, Mean (Figure 1B): % of mean signal of per-plate 0.5% DMSO control wells. The following applies: for Percentage luminescence, Mean: Fig 1B dose response; for Luminescence signal over time, mean: FGF13, PW164. The text has this: The respective gene ID numbers used in this study are as follows: NM_033642 (human, FGF13-1b) and NM_002977 (human SCN9A). Full-length FGF13-1b (aa 1-192) was subcloned into appropriate plasmids for use in this investigation, unless otherwise noted. For consistency with AlphaFold modeling presented, numbering of point mutations to FGF13-1b are based on the longest FGF13 isoform (FGF13-1a, NM_004114.2). CLuc-FGF13, […]
and constructs expressing the CLuc or the NLuc fragments of Firefly ( Photinus pyralis) luciferase (24) respectively were engineered, mutated (CLuc-FGF13R110A) and sequenced at the Molecular Genomics Core (University of Texas Medical Branch). The CD4 -Nav1.7-CTD-NLuc cassette was synthesized from GeneArt (Nav1.7 residues 1780-1977) (ThermoFisher) and subcloned at 5'-HindIII and 3’-BsiWi restriction sites in pcDNA3.1 (Invitrogen). Additionally, FGF13 was amplified with polymerase chain reaction (PCR) by using gene-specific primers, and subcloned in pcDNA3.1 at 5’ -BsiWi and 3’-Not I restriction sites. […]
Cell Culture and transfections
HEK293 cells were purchased from ATCC (catalog # CRL-1573). Cells were cultured and incubated at 37 °C with 5% CO2 in medium with equal volumes of Dulbecco modified essential medium (DMEM) and F12 […]
Split-luciferase Complementation Assay (LCA)
Twenty-four hours post transfection, cells were trypsinized using TrypLE (Gibco; cat # 12604013), centrifuged at 1750 rpm for 5 min, triturated in medium, and seeded into white clear-bottom 96-well CELLSTAR µClear® plates (Greiner Bio -One; cat # 655073 ) at ~0.8 x 10^5 cells per well in 200 µl of medium. The cells were incubated for another 24 hours, and then the growth medium was replaced with 100 µl serum -free, phenol red -free DMEM/F-12 medium (Invitrogen). All compounds from the PW - and the ZL-series, including PW164 and ZL192, were dissolved in DMSO, added to a final concentration of 1 –500 μM (0.5 % DMSO) in the serum -free medium and then cells were incubated for two hours. The bioluminescence reaction was initiated by injection of 100 μl of D -luciferin substrate (1.5 mg/ml dissolved in PBS) using a Synergy H4 multimode microplate reader (BioTek). Luminescence readings were initiated after 3 s of mild plate shaking and performed at 2 min intervals for 20-30 min with integration times of 0.5 s, and the c ells were maintained throughout the measurements at 37 °C. Raw signal intensity was computed by averaging peak luminescence plus two adjacent time points.
Normalized signal intensity was expressed as the percentage of mean signal intensity relative to per plate control wells treated with 0.5% DMSO. […]
The FGF13 was immobilized to the final 1 0050 RU, and Nav1.7 to the 10 or 1000 RU, and no protein was coupled to the control channel of the chip. For each compound, stock solution (50 mM) was serially diluted from 300 to 1 µM; the Nav1.7 -CTD peptide (1876 -1899, 23 amino acids, MW ~2.8 kDa) was se rially diluted from 150 to 1 nM in PBS-P+ (PBS supplemented 0.005% with tween 20). Samples were injected over the chip for 60 s followed by dissociation for 120 s at the flow rate 40 µl/min; finally, the chip was regenerated using the solution of 1.5 M NaCl, 3% DMSO for 180 s. The interaction of compound or un-conjugated Nav1.7 -CTD peptide with FGF13, as […]

The structures appear in SMILES notation. “And” between values parts separate entries of the source, which are not always exact repeats. Identical values can stand only once. Residues, ends and D or L forms follow the SMILES beside them. *: point of attachment. Cbz = O=C(OCc1ccccc1)*; NHPh = c1ccc(N*)cc1; OtBu = CC(C)(C)O*

With `COC(=O)[C@@H](NC(=O)[C@H](CCC(=O)OC(C)(C)C)NC(=O)[C@H](CC(C)C)NC(=O)[C@@H]1CCCN1C(=O)OCc1ccccc1)C(C)C` [PW164] (Cbz-PLE(OtBu)V-OMe), under “50 μM, individual replicates, vehicle about 100”, the “LCA screening of the PW-series compounds against the FGF13/Nav1.7 complex (Fig. S2C)” value is 52.9829 and 54.4974 and 52.792 and 43.8067 and 53.8102 and 54.3574 and 65.3028 and 53.9247. In addition, the “Percentage luminescence, Mean” value (Log (conc(M)) -3.6) is listed as 36.225%; the “Percentage luminescence, Mean” value (Log (conc(M)) -3.82) was found to be 36.175%; the “Percentage luminescence, Mean” value (Log (conc(M)) -4) was determined as 36.8%; the “Percentage luminescence, Mean” value (Log (conc(M)) -4.12) worked out at 37.575%; the “Percentage luminescence, Mean” value (Log (conc(M)) -4.22) came to 41.95%; the “Percentage luminescence, Mean” value (Log (conc(M)) -4.3) came to 49.1%. For the same molecule, the “Percentage luminescence, Mean” value was 55.95% (Log (conc(M)) -4.4); 72.975% (Log (conc(M)) -4.6); 78.7625% (Log (conc(M)) -4.7); 95.2% (Log (conc(M)) -4.82); 102.25% (Log (conc(M)) -5); 98.45% (Log (conc(M)) -5.5). Also, the “Percentage luminescence, Mean” value (Log (conc(M)) -6) amounted to 97.8125%. For the same molecule, the “Luminescence signal over time, mean” value (Fig 1B, Time 0) was found to be 229.9; the “Luminescence signal over time, mean” value (Fig 1B, Time 5) amounted to 547.2; the “Luminescence signal over time, mean” value (Fig 1B, Time 10) is reported as 954.8; the “Luminescence signal over time, mean” value (Fig 1B, Time 15) was determined as 1153.7. For the same molecule, for the setting “Fig 1B, FGF13, PW164 (20 μM)”, the “Percentage luminescence, single replicates” value is 42.7306% and 39.5799% and 34.1155% and 47.555% and 46.8165% and 80.4398% and 35.0509% and 53.5117% and 52.6748% and 30.1772% and 36.3308%. The “LCA analysis of FGF13/Nav1.7” value (Figure 8D, WT PW164, replicate values beside WT DMSO) was 48.4338 and 51.009 and 48.3348 and 45.8586 and 44.3729 and 45.9577 and 44.0758 and 49.7469 and 51.824 and 46.8389 and 47.9813. In addition, the IC50 (LCA dose response, Fig 1B, read-out: IC50, inhibition of FGF13/Nav1.7 complex assembly) was 29 ± 5 µM.
For the molecule `CC(=O)N[C@@H](Cc1ccccc1)C(=O)N[C@@H](CC(C)C)C(=O)N1CCC[C@H]1C(=O)N[C@@H](CCCCN)C(=O)Nc1ccccc1` [ZL192] (Ac-FLPK-NHPh), under “FGF13, ZL192 vs Vehicle”, the “LCA signal, FGF13 (Figure 1B), individual replicates” value is 148.142 and 186.697 and 151.094 and 172.833 and 154.782 and 172.987 and 159.506 and 193.88 and 161.695 and 170.692 and 150.24 and 163.294. Besides, for the setting “LCA dose-response, Fig 4B, read-out: EC50, increase of FGF13/Nav1.7 complex assembly”, the EC50 was 28 ± 5 µM. For the same molecule, the “LCA dose response, Mean (Figure 1B)” value was 132.85 (Log (conc(M)) -3.6); 139.626 (Log (conc(M)) -3.82); 140.168 (Log (conc(M)) -4); 146.164 (Log (conc(M)) -4.12); 133.106 (Log (conc(M)) -4.22); 141.107 (Log (conc(M)) -4.3). Further, the “LCA dose response, Mean (Figure 1B)” value runs as follows: (Log (conc(M)) -4.4) 130.374; (Log (conc(M)) -4.6) 116.119; (Log (conc(M)) -4.7) 109.491; (Log (conc(M)) -4.82) 110.318; (Log (conc(M)) -5) 102.555; (Log (conc(M)) -5.5) 100.737. Besides, the “LCA dose response, Mean (Figure 1B)” value (Log (conc(M)) -6) came out at 101.723.
